In this assay the target is PC-PLC (phosphatidylcholine-specific phospholipase C) (Bacillus cereus, UniProt P09598). The experiment in a line: fluorescence of dequenched Pyro-PtdEtn-BHQ hydrolysis, initial rate. Format: biochemical.

Consider one molecule from PMC3292874 (Bioconjugate Chemistry, 2011).

Chain of PC-PLC (phosphatidylcholine-specific phospholipase C) (P09598 39-283 limits assumed): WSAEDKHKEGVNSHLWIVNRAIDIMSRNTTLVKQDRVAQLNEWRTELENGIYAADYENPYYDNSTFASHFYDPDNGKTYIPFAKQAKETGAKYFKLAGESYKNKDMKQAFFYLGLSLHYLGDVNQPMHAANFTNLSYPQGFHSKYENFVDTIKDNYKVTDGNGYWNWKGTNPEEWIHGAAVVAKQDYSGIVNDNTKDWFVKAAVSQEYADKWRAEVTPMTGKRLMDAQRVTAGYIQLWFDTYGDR

Usually IC50 stands for the concentration needed to halve the response being measured. `S=C(S)OC1CC2CC1C1CCCC21` (stereo not shown) [D609] returned an IC50 of 34 ± 8 µM.
